We go through one compound from patent EP1263429B1, “ANTIVIRAL THERAPY” (Universiteit Utrecht, priority 2000, dated 2001).

Series [1] relates to Monocyte-derived macrophages (MDM). It counts as cell-based, human. As to the method:
Cell viability is assessed by the MTT assay. In short, cells are incubated with MTT 3-(4,5-dimethylthiazol-2-yl)-2,5-diphenyltetrazollumbromide (Sigma) for 2 hours at 37 °C. During this time viable cells convert MTT into […] formazan dyes. Afterwards crystals are solubilised with a solution containing isopropanol. The OD of the supernatant is measured at 550 nm.
Monocyte-derived macrophages (MDM) were obtained like described above. MDM were then washed twice and cultured for 4 to 7 days in different concentrations of APHS. After a 4 days incubation period cellular viability was assessed by MTT cytotoxicity assay where viable cells convert MTT into a colored formazan dye that can be measured spectrophotometrically.
• Fig. 1 - Plasmids that are used for studies on the effect of compounds on HIV promotor activity. • Fig. 2 - Peripheral blood mononuclear cells (PBMC) were isolated from heparinized blood from HIV-1-, HIV-2-, and hepatitis B-seronegative donors and obtained on Ficoll-Hypaque density gradients. PBMC were washed twice and monocytes were purified by countercurrent centrifugal elutriation. […] After 4 and 5 days of incubation samples of culture supernatant were collected and p24-core antigen production was quantified using the enzyme-linked immunosorbent assay (ELISA) system of John Moore. […]

The test system of a further series is HIV-1Ba-L. Nature of the series: HIV-1 production by chronically infected PBMC, p24-core antigen ELISA. The series is classed as cell-based. Conditions: Fig 6B; APHS added 5 days after infection, 2 days of incubation. As to the method:
(A, B) Peripheral blood mononuclear cells (PBMC) were isolated from heparinized blood from HIV-1-, HIV-2-, and hepatitis B-seronegative donors and obtained on Ficoll-Hypaque density gradients. Cells were washed twice, stimulated with 5 µg/ml phytohemagglutinin (PHA), and cultured m RPMI-1640 medium supplemented with 5 mM Hepes, 19 mM sodium bicarbonate, 10 µg/mL gentamicin, and 10% heat-inactivated fetal calf serum (PBMC culture medium) at a concentration of 2 x 10^6 cells/ml. After 3 days of incubation stimulated PBMC were recovered from the flasks and infected for 2 hours with HIV-1Ba-L at a multiplicity of infection of 0.01. Afterwards, HIV-infected and mock-infected PBMC were washed twice to remove unbound virus. […] (B) PBMC were cultured in suspension at a concentration of 2 x 10^6 cells/ml in Teflon flasks in PBMC culture medium. […] After 2 days of incubation samples of culture supernatant were collected. p24-core antigen production was quantified using the enzyme-linked immunosorbent assay (ELISA) system of John Moore. […] (C, D) PBMC were isolated from heparinized blood from HIV-1-, HIV-2-, and hepatitis B-seronegative donors and obtained on Ficoll-Hypaque density gradients. […] After 2 days of incubation samples of culture supernatant were collected. p24-core antigen production was quantified using the enzyme-linked immunosorbent assay (ELISA) system of John Moore. […]

On to `CCCCC#CCSc1ccccc1OC(C)=O` [APHS, o-(acetoxy-phenyl)hept-2-ynyl sulphide], for which, in series [1], the “cytotoxicity (cellular viability, MTT)” value is on record as “None of the tested concentrations of APHS was found to be cytotoxic”. The “inhibition of HIV-1 production of chronically infected PBMCs” value in the series on HIV-1Ba-L is “does not inhibit”.
